Test in all cases: NCI tumour cell line growth inhibition, 48 h
The test system of experiment [1] is NCI-H522.
Experiment [2] has as its system SNB-75.
Experiment [3] has as its system DLD-1.
For experiment [4], the system named is HCC 2998.
Experiment [5] relates to A549.
The test system of experiment [6] is UO-31.
In experiment [7] the test system is U-251.
For experiment [8], the system named is OVCAR-5.
The test system of experiment [9] is EKVX.
For experiment [10], the system named is SF-295.
The subject of experiment [11] is TK-10.
The subject of experiment [12] is SK-OV-3.
In experiment [13] the test system is RPMI-8226.
In experiment [14] the test system is HL-60.
The test system of experiment [15] is SF-539.
Experiment [16] relates to Hs-578T.
For experiment [17], the system named is DU-145.
The subject of experiment [18] is PC-3.
Experiment [19] concerns T47D.
Experiment [20] concerns MCF7.

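Values below derive from 48-hour exposures of cells grown in 96-well plates, with endpoints linearly interpolated between the two concentrations bracketing the appropriate inhibition level. At the GI50, growth is halved.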 Calls of active or inactive are those of the source. Cut-off read from the data, not from the text of the source: active = GI50 up to about 1.1 µM and inactive = higher.

Regarding `Nc1ccc(C(=O)NN2C(=O)C(Cl)C2c2cccc([N+](=O)[O-])c2)cc1` (stereo not drawn), the GI50 in experiment [1] was 12 µM (inactive); in experiment [2], 18.7 µM (inactive); in experiment [3], 17.9 µM (inactive); in experiment [4] it was 24.3 µM (inactive); in experiment [5] it was 46.3 µM (inactive); in experiment [6] it was 17.4 µM (inactive). Further, the GI50 in experiment [7] was 13.9 µM (inactive); in experiment [8], 21.1 µM (inactive); in experiment [9], 28.2 µM (inactive); in experiment [10], 20.5 µM (inactive); in experiment [11], 18.7 µM (inactive); in experiment [12], 18.7 µM (inactive). The GI50 in experiment [13] is 23.2 µM (inactive); in [14], 20.7 µM (inactive); in [15] it was 20.7 µM (inactive).
For the compound `CCCCCCCCCCCCN(O)C(=O)c1ccccc1`, the GI50 in [1] is 25.6 µM (inactive); in [2], 22.9 µM (inactive); in experiment [3], 26.4 µM (inactive); in [4] it was 30.3 µM (inactive); in experiment [5] it was 24.4 µM (inactive); in experiment [6], 24.3 µM (inactive). For the same compound, the GI50 is 11.8 µM (inactive) in [7]; 21.5 µM (inactive) in experiment [8]; 25.9 µM (inactive) in [9]; 29.4 µM (inactive) in [10]; 46.5 µM (inactive) in experiment [11]; 43.1 µM (inactive) in [12]. Moreover, the GI50 in experiment [13] is 15.1 µM (inactive); in experiment [14] it was 19.1 µM (inactive); in experiment [15], 20.6 µM (inactive).
On to `Cc1c2cc[n+]([O-])cc2c(C)c2c1[nH]c1ccccc12`, for which the GI50 in experiment [1] is 5.97 µM (inactive); in [2], 5.77 µM (inactive); in experiment [3], 5.42 µM (inactive); in experiment [16], 3.54 µM (inactive); in experiment [4], 12.5 µM (inactive); in experiment [17] it was 8.73 µM (inactive). Besides, the GI50 in experiment [18] is 5.04 µM (inactive); in experiment [5], 4.28 µM (inactive); in experiment [6], 5.47 µM (inactive); in experiment [7], 3.76 µM (inactive); in experiment [8] it was 4.59 µM (inactive); in experiment [19], 2.14 µM (inactive). Besides, the GI50 in experiment [9] is 11.4 µM (inactive); in experiment [20], 1.21 µM (inactive); in experiment [10], 4.58 µM (inactive); in experiment [11] it was 5.32 µM (inactive); in experiment [12] it was 10.8 µM (inactive); in [13] it was 6.19 µM (inactive). Moreover, the GI50 in experiment [14] is 7.8 µM (inactive); in [15], 2.99 µM (inactive).
`COc1c(C(C)C)cc2c3c1OC(=O)[C@@]31CCCC(C)(C)C1CC2` (stereo partly drawn): the GI50 was 9.18 µM (inactive) in experiment [1]; 22 µM (inactive) in [2]; 69.8 µM (inactive) in experiment [3]; 50.2 µM (inactive) in [4]; 13.6 µM (inactive) in [5]; 11.7 µM (inactive) in experiment [6]. Also, the GI50 in [7] is 20 µM (inactive); in [8], 52.4 µM (inactive); in [9], 14.6 µM (inactive); in [10], 24.5 µM (inactive); in experiment [11] it was 25.2 µM (inactive); in experiment [12], 23.8 µM (inactive). For the same compound, the GI50 in [13] was 18.9 µM (inactive); in experiment [14] it was 14.2 µM (inactive); in [15], 14 µM (inactive).
`Clc1ccc(C2=NN(c3ccccc3)C3c4cc(Br)ccc4OCC23)cc1` (stereo not drawn): the GI50 in experiment [1], in experiment [2], in [3], in experiment [4], in [5] and in experiment [6] was > 100 µM (inactive) each time. Moreover, the GI50 is 67.3 µM (inactive) in [7]; > 100 µM (inactive) in experiment [8]; > 100 µM (inactive) in experiment [9]; 86.3 µM (inactive) in experiment [10]; > 100 µM (inactive) in experiment [11]; > 100 µM (inactive) in experiment [12]. For the same compound, the figures for the GI50 in experiment [13], in [14] and in experiment [15] were 11.6 µM (inactive), 40.8 µM (inactive) and > 100 µM (inactive), respectively.
Consider `OCC1OC(n2cnc3c2NC=NC[C@H]3O)CC1O` (stereo partly drawn), for which the GI50 in [1] is 444 µM (inactive); in experiment [2] it was 337 µM (inactive); in experiment [3], 494 µM (inactive); in experiment [16] it was > 500 µM (inactive); in experiment [4], 387 µM (inactive); in [17], 324 µM (inactive). Besides, the GI50 was > 500 µM (inactive) in [18]; 460 µM (inactive) in experiment [6]; 480 µM (inactive) in experiment [7]; > 500 µM (inactive) in experiment [8]; 258 µM (inactive) in [19]; 489 µM (inactive) in [9]. Besides, the GI50 is 441 µM (inactive) in [20]; 448 µM (inactive) in experiment [10]; > 500 µM (inactive) in [11]; 467 µM (inactive) in [12]; 478 µM (inactive) in experiment [13]; 417 µM (inactive) in experiment [14].
As for `CCCCCCC(=O)OC[n+]1ccc2c(C)c3[nH]c4ccc(OC)cc4c3c(C)c2c1`, the GI50 in [1] was 0.303 µM (active); in experiment [2] it was 1.13 µM (inactive); in experiment [3] it was 0.092 µM (active); in [16], 1.32 µM (inactive); in experiment [4], 0.421 µM (active); in experiment [17], 0.55 µM (active). In addition, the GI50 is 0.246 µM (active) in experiment [18]; 0.238 µM (active) in experiment [5]; 0.83 µM (active) in experiment [6]; 0.282 µM (active) in experiment [7]; 1.05 µM (active) in experiment [8]; 0.883 µM (active) in experiment [19]. Also, the GI50 was 0.8 µM (active) in [9]; 0.214 µM (active) in experiment [20]; 0.277 µM (active) in [10]; 2.05 µM (inactive) in experiment [11]; 0.585 µM (active) in experiment [12]; 0.0548 µM (active) in [13]. Moreover, the values for the GI50 in experiment [14] and in experiment [15] were 0.245 µM (active) and 0.299 µM (active), respectively.
For the compound `COC(=O)C(C(=O)C(=O)Nc1cccc(OC)c1)c1cnc2ccccc2n1` (stereo not drawn), the GI50 was > 100 µM (inactive) in experiment [1]; > 100 µM (inactive) in experiment [2]; > 100 µM (inactive) in experiment [3]; > 100 µM (inactive) in experiment [4]; 66.8 µM (inactive) in experiment [5]; > 100 µM (inactive) in experiment [6]. In addition, the GI50 in experiment [7], in experiment [8], in experiment [9], in experiment [10], in [11] and in experiment [12] was > 100 µM (inactive) each time. The GI50 in experiment [13], in experiment [14] and in [15] was > 100 µM (inactive) throughout.

These data come from ChEMBL document CHEMBL1201862, “PubChem BioAssay data set” (2004).
